Target: T1, Cps3D (Actinobacillus pleuropneumoniae, UniProt A0A2S0ETM3)
T1 construct: MBP-Cps3D-His6 (177 kDa), full-length, tags kept, expressed in E. coli M15[pREP4]
Test: HPLC-AEC of donor consumption, PAGE and NMR of polymer
Type: biochemical
Settings: 20 mM Tris pH 8.0, 10 mM MgCl2, 1 mM DTT, 37 °C; no primer; with UDP-Gal

T1 sequence (A0A2S0ETM3 entry or part of it): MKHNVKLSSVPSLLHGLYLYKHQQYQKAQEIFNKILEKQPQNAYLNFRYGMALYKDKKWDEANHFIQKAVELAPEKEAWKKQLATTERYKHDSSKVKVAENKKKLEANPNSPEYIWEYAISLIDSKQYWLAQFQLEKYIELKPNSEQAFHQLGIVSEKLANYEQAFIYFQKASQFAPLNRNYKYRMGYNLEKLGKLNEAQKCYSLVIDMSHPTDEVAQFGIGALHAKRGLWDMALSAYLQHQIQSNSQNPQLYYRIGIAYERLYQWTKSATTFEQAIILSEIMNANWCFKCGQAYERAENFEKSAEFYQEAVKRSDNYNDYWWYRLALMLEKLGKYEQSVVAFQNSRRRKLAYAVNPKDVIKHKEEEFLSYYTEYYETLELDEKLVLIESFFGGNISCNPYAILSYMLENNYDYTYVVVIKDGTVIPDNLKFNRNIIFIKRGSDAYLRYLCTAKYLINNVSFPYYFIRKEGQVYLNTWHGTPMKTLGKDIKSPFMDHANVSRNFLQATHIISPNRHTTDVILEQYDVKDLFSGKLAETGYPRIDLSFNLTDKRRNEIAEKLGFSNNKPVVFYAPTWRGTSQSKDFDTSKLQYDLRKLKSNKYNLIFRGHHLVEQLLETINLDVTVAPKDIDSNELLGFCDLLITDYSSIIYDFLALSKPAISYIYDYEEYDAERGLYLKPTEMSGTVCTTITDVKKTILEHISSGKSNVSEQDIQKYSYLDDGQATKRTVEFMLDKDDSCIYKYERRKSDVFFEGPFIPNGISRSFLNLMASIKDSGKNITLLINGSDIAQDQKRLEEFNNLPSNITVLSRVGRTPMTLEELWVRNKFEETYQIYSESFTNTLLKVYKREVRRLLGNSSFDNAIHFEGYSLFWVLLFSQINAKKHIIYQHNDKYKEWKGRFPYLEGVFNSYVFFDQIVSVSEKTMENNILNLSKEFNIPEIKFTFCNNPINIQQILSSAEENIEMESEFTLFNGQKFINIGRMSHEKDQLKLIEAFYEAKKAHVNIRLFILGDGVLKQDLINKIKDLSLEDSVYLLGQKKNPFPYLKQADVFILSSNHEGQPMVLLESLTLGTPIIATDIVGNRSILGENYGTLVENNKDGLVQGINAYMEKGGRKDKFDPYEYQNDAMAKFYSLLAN

## Nc1ccn([C@@H]2O[C@H](COP(=O)(O)OP(=O)(O)OC[C@H](O)CO)[C@@H](O)[C@H]2O)c(=O)n1 (racemic) [CDP-glycerol]
  HPLC-AEC of donor consumption, PAGE and NMR of polymer: both enantiomers are substrates for the enzymes as shown by the complete consumption of CDP-glycerol
